For four compounds, Emax and EC50 results are on record in patent US20220387608A1, “ADRENOMEDULLIN-ANALOGUES FOR LONG-TERM STABILIZATION AND THEIR USE” (Bayer Aktiengesellschaft, priority 2019, published 2022).

The assay concerns the target T1, AM1R (Homo sapiens, UniProt O60895+Q16602).
T1 construct: EYFP; ECFP; expressed in transfected cells; host or cells: HEK-293 (transient co-transfection)
In words: Activity determination in vitro: cAMP/CRE-luciferase reporter assay in HEK293 cells transiently co-transfected with CLR and RAMP2. The settings on record: for Emax: HEK293, normalized to [G14]ADM(14-52); for EC50: HEK293 with CLR/RAMP2, CRE-luciferase, 3 h stimulation. In kind it is cell-based. On the procedure:
(1a) Activity Determination of Adrenomedullin Analogues in vitro
Cell Culture HEK-293 cells (human embryonic kidney cells) were cultured in Ham's F-12/DMEM (1/1; v/v) containing 15% FCS under humidified atmosphere at 37° C. and 5% CO2 in 75 cm^2 cell culture flasks.
Cells were cultured in 75 cm^2 flasks to 70-80% confluency. 45 μl Metafectene® Pro was diluted in 900 ρl Ham's F-12/DMEM (1/1; v/v) and incubated for 20 min at room temperature. 9 μg plasmid containing DNA of CLR fused to EYFP and 3 μg plasmid containing DNA of RAMP2 fused to ECFP were dissolved in 900 μl Ham's F-12/DMEM (1/1; v/v). The plasmid solution was mixed with the Metafectene® Pro solution and incubated for 25 min at room temperature. Medium was removed from the cells and replaced by 6 m1 Ham's F-12/DMEM (1/1; v/v) containing 15% FCS. After addition of transfection solution the cells were incubated for 3 h under humidified atmosphere at 37° C. and 5% CO2. For the second transfection 45 μl Metafectene® Pro was diluted in 900 μl Ham's F-12/DMEM (1/1; v/v) and incubated for 20 min at room temperature. 12 μg of pGL4.29[Luc2P/CRE/Hygro] plasmid containing DNA for the luciferase reporter gene luc2P (with CRE promotor region) were dissolved in 900 μl Ham's F-12/DMEM (1/1; v/v). The plasmid solution was mixed with the Metafectene® Pro solution and incubated for 25 min at room temperature. Medium was removed from the cells and replaced by 6 m1 Ham's F-12/DMEM (1/1; v/v) containing 15% FCS. After addition of transfection solution, the cells were incubated under humidified atmosphere at 37° C. and 5% CO2 over night.
For coating of 96-well-plates, 50 μl of a poly-D-lysine solution in DPBS (0.1 mg/ml) were pipetted in each well and incubated for 40 min. After removal of poly-D-lysine, each well was washed with 50 μl DPBS. Transiently transfected cells were detached from the cell culture flask by removal of the medium, 2-fold washing with 5 m1 DPBS and resuspending in 40 m1 Ham's F-12/DMEM (1/1; v/v) containing 15% FCS. 90,000 to 120,000 cells in 150 μl Ham's F-12/DMEM (1/1; v/v) containing 15% FCS were seeded per well and the plates were incubated under humidified atmosphere at 37° C. and 5% CO2 over night.
For each ligand, a serial dilution with eight different concentrations was prepared using Ham's F^12/DMEM (1/1; v/v). Before stimulation, the medium on the cells was replaced by 100 μl Ham's F^12/DMEM (1/1; v/v) and the plates were incubated for 1 h under humidified atmosphere at 37° C. and 5% CO2. For stimulation, the medium was removed and the cells were incubated for 3 h in 80 μl of ligand-solution under humidified atmosphere at 37° C. and 5% CO2. In addition 80 μl of a 5 μM forskolin solution in Ham's F-12/DMEM (1/1; v/v) was used as a positive control and 80 μl of Ham's F-12/DMEM (1/1; v/v) as a negative control. Each concentration and the controls were tested as triplicates.
After 3 h of stimulation, the solutions were removed and the cells were washed with 50 μl of Ham's F-12/DMEM (1/1; v/v) perwell. After 10 m incubation in 30 μl of Ham's F-12/DMEM (1/1; v/v) at room temperature, 30 μl of luciferase-solution (ONE-Glo™ Luciferase Assay System) was added and the luminescence was directly measured using an Infinite M200 (Tecan).
Data analysis of the luminescence measurement was carried out with GraphPad Prism 5. Therefore, the measured luminescence values of each plate were first corrected on the base of the respective average of forskolin stimulation. Afterwards they were normalized to [G14]ADM(14-52), which was used as standard peptide in every assay. After correction and normalization, data was analyzed using non-linear regression giving dose-response curves for each tested ligand.
(Reporter assays use an easily measured gene product as a stand-in for the process of interest.)

Positions of bridges follow the written chain, without caps; N, C: chain ends. Residues, ends and D or L forms follow the SMILES beside them. *: point of attachment. C18 diacid = O=C(O)CCCCCCCCCCCCCCCCC(=O)*

T1 sequence (Q16602 23-461): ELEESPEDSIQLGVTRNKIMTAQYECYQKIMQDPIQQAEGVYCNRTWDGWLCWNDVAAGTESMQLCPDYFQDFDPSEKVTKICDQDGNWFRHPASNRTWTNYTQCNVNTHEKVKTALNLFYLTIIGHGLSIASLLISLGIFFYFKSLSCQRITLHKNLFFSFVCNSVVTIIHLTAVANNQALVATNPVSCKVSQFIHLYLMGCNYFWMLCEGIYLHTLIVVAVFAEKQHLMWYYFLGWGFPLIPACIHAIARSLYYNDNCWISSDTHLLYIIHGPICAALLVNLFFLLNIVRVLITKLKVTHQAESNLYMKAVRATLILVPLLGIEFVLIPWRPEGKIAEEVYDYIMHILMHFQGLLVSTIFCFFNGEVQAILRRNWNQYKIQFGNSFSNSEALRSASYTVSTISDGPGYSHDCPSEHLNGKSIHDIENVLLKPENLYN
T1 sequence (O60895 43-175): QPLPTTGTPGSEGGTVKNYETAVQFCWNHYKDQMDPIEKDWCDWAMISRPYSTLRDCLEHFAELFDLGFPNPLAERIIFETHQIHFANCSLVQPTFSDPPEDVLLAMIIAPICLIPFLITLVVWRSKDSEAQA

By Emax is commonly meant the greatest response seen or fitted, relative to the assay's reference. By EC50 is commonly meant the concentration giving half of the maximal effect. A lower EC50 goes with greater potency. In the case of `CC[C@H](C)[C@H](NC(=O)[C@H](CCC(N)=O)NC(=O)[C@H](Cc1c[nH]cn1)NC(=O)[C@H](C)NC(=O)[C@H](CC(C)C)NC(=O)[C@H](CCCCN)NC(=O)[C@H](CCC(N)=O)NC(=O)[C@@H](NC(=O)[C@@H](NC(=O)[C@@H]1CSSC[C@H](NC(=O)CNC(=O)CN)C(=O)N[C@@H](CCCNC(=N)N)C(=O)N[C@@H](Cc2ccccc2)C(=O)NCC(=O)N[C@@H]([C@@H](C)O)C(=O)N1)[C@@H](C)O)C(C)C)C(=O)N[C@@H](Cc1ccc(O)cc1)C(=O)N[C@@H](CCC(N)=O)C(=O)N[C@@H](Cc1ccccc1)C(=O)N[C@H](C(=O)N[C@@H](CC(=O)O)C(=O)N[C@@H](CCCCN)C(=O)N[C@@H](CC(=O)O)C(=O)N[C@@H](CCCCN)C(=O)N[C@@H](CC(=O)O)C(=O)N[C@@H](CC(N)=O)C(=O)N[C@H](C(=O)N[C@@H](C)C(=O)N1CCC[C@H]1C(=O)N[C@H]1CCCCNC(=O)C[C@@H](C(=O)N2CCC[C@H]2C(=O)N[C@@H](CCC(N)=O)C(=O)NCC(=O)N[C@@H](Cc2ccc(O)cc2)C(N)=O)NC(=O)[C@H]([C@@H](C)CC)NC(=O)[C@H](CCCCN)NC(=O)[C@H](CO)NC1=O)C(C)C)[C@@H](C)O` [Example 1, ((4R,7S,13S,16S,19R)-19-(2-(2-aminoacetamido)acetamido)-13-benzyl-16-(3-guanidinopropyl)-7-((R)-1-hydroxyethyl)-6,9,12,15,18-pentaoxo-1,2-dithia-5,8,11,14,17-pentaazacycloicosane-4-carbonyl)-L-threonyl-ADM(23-43)-((2S,5S,8S,11S,18S)-5-(4-aminobutyl)-18-(λ^2-azaneyl)-8-((S)-sec-butyl)-2-(hydroxymethyl)-3,6,9,13,19-pentaoxo-1,4,7,10,14-pentaazacyclononadecane-11-carbonyl)-L-prolyl-ADM(50-52)] (H-GGCRFGTCTVQKLAHQIYQFTDKDKDNVAPKSKIDPQGY-NH2; disulfide 3-8; lactam 31-35), the Emax came out at 102 ± 3% and the EC50 was determined as 3.9 nM.
In the same order, the values of `CC[C@H](C)[C@H](NC(=O)[C@H](CCC(N)=O)NC(=O)[C@H](Cc1c[nH]cn1)NC(=O)[C@H](C)NC(=O)[C@H](CC(C)C)NC(=O)[C@H](CCCCN)NC(=O)[C@H](CCC(N)=O)NC(=O)[C@@H](NC(=O)[C@@H](NC(=O)[C@@H]1CSSC[C@H](NC(=O)CNC(=O)CN)C(=O)N[C@@H](CCCNC(=N)N)C(=O)N[C@@H](Cc2ccccc2)C(=O)NCC(=O)N[C@@H]([C@@H](C)O)C(=O)N1)[C@@H](C)O)C(C)C)C(=O)N[C@@H](Cc1ccc(O)cc1)C(=O)N[C@@H](CCC(N)=O)C(=O)N[C@@H](Cc1ccccc1)C(=O)N[C@H](C(=O)N[C@@H](CC(=O)O)C(=O)N[C@@H](CCCCN)C(=O)N[C@@H](CC(=O)O)C(=O)N[C@@H](CCCCN)C(=O)N[C@@H](CC(=O)O)C(=O)N[C@@H](CC(N)=O)C(=O)N[C@H](C(=O)N[C@@H](C)C(=O)N1CCC[C@H]1C(=O)N[C@H]1CCCCNC(=O)CC[C@@H](C(=O)N2CCC[C@H]2C(=O)N[C@@H](CCC(N)=O)C(=O)NCC(=O)N[C@@H](Cc2ccc(O)cc2)C(N)=O)NC(=O)[C@H]([C@@H](C)CC)NC(=O)[C@H](CCCCN)NC(=O)[C@H](CO)NC1=O)C(C)C)[C@@H](C)O` [Example 3, ((4R,7S,13S,16S,19R)-19-(2-(2-aminoacetamido)acetamido)-13-benzyl-16-(3-guanidinopropyl)-7-((R)-1-hydroxyethyl)-6,9,12,15,18-pentaoxo-1,2-dithia-5,8,11,14,17-pentaazacycloicosane-4-carbonyl)-L-threonyl-ADM(23-43)-((2S,5S,8S,11S,20S)-5-(4-aminobutyl)-20-(λ^2-azaneyl)-8-((S)-sec-butyl)-2-(hydroxymethyl)-3,6,9,14,21-pentaoxo-1,4,7,10,15-pentaazacyclohenicosane-11-carbonyl)-L-prolyl-ADM(50-52)] (H-GGCRFGTCTVQKLAHQIYQFTDKDKDNVAPKSKIEPQGY-NH2; disulfide 3-8; lactam 31-35) are 93 ± 2% and 16 nM.
In the case of `CC[C@H](C)[C@H](NC(=O)[C@H](CCC(N)=O)NC(=O)[C@H](Cc1c[nH]cn1)NC(=O)[C@H](C)NC(=O)[C@H](CC(C)C)NC(=O)[C@H](CCCCN)NC(=O)[C@H](CCC(N)=O)NC(=O)[C@@H](NC(=O)[C@@H](NC(=O)[C@@H]1CSSC[C@H](NC(=O)CNC(=O)[C@@H](N)CCCCNC(=O)CCCCCCCCCCCCCCCCC(=O)O)C(=O)N[C@@H](CCCNC(=N)N)C(=O)N[C@@H](Cc2ccccc2)C(=O)NCC(=O)N[C@@H]([C@@H](C)O)C(=O)N1)[C@@H](C)O)C(C)C)C(=O)N[C@@H](Cc1ccc(O)cc1)C(=O)N[C@@H](CCC(N)=O)C(=O)N[C@@H](Cc1ccccc1)C(=O)N[C@H](C(=O)N[C@@H](CC(=O)O)C(=O)N[C@@H](CCCCN)C(=O)N[C@@H](CC(=O)O)C(=O)N[C@@H](CCCCN)C(=O)N[C@@H](CC(=O)O)C(=O)N[C@@H](CC(N)=O)C(=O)N[C@H](C(=O)N[C@@H](C)C(=O)N1CCC[C@H]1C(=O)N[C@@H](CCCNC(=N)N)C(=O)N[C@@H](CO)C(=O)N[C@@H](CCCCN)C(=O)N[C@H](C(=O)N[C@@H](CO)C(=O)N1CCC[C@H]1C(=O)N[C@@H](CCC(N)=O)C(=O)NCC(=O)N[C@@H](Cc1ccc(O)cc1)C(N)=O)[C@@H](C)CC)C(C)C)[C@@H](C)O` [Example 5, ((4R,7S,13S,16S,19R)-19-(2-((S)-2-amino-6-(17-carboxyoctadecanamido)hexanamido)acetamido)-13-benzyl-16-(3-guanidinopropyl)-7-((R)-1-hydroxyethyl)-6,9,12,15,18-pentaoxo-1,2-dithia-5,8,11,14,17-pentaazacycloicosane-4-carbonyl)-L-threonyl-ADM(23-52)], the Emax came out at 105 ± 5% and the EC50 amounted to 17 nM.
For the compound `CC[C@H](C)[C@H](NC(=O)[C@H](CCC(N)=O)NC(=O)[C@H](Cc1c[nH]cn1)NC(=O)[C@H](C)NC(=O)[C@H](CC(C)C)NC(=O)[C@H](CCCCN)NC(=O)[C@H](CCC(N)=O)NC(=O)[C@@H](NC(=O)[C@@H](NC(=O)[C@@H]1CSSC[C@H](NC(=O)CNC(=O)[C@@H](N)CCCCNC(=O)CCCCCCCCCCCCCCCCC(=O)O)C(=O)N[C@@H](CCCNC(=N)N)C(=O)N[C@@H](Cc2ccccc2)C(=O)NCC(=O)N[C@@H]([C@@H](C)O)C(=O)N1)[C@@H](C)O)C(C)C)C(=O)N[C@@H](Cc1ccc(O)cc1)C(=O)N[C@@H](CCC(N)=O)C(=O)N[C@@H](Cc1ccccc1)C(=O)N[C@H](C(=O)N[C@@H](CC(=O)O)C(=O)N[C@@H](CCCCN)C(=O)N[C@@H](CC(=O)O)C(=O)N[C@@H](CCCCN)C(=O)N[C@@H](CC(=O)O)C(=O)N[C@@H](CC(N)=O)C(=O)N[C@H](C(=O)N[C@@H](C)C(=O)N1CCC[C@H]1C(=O)N[C@H]1CCCCNC(=O)C[C@@H](C(=O)N2CCC[C@H]2C(=O)N[C@@H](CCC(N)=O)C(=O)NCC(=O)N[C@@H](Cc2ccc(O)cc2)C(N)=O)NC(=O)[C@H]([C@@H](C)CC)NC(=O)[C@H](CCCCN)NC(=O)[C@H](CO)NC1=O)C(C)C)[C@@H](C)O` [Example 13] (H-K(C18 diacid)GCRFGTCTVQKLAHQIYQFTDKDKDNVAPKSKIDPQGY-NH2; disulfide 3-8; lactam 31-35), the Emax was found to be 94 ± 7% and the EC50 was 2.6 nM.
